From US20210214341A1, “SUBSTITUTED PYRIDINYL AZETIDINONE DERIVATIVES FOR USE IN TREATING CANCER AND OTHER DISEASES” (The Board of Regents of the University of Texas System, priority 2018, published 2021)
Read-outs that look alike come from different tables or passages of the source.

Key:
[1] = test system: pancreatic cancer cells PANC-1 (ATCC CRL-1469); test: SRB (Sulforhodamine B) assay in PANC-1 cells; type: cell-based; conditions: Homo sapiens, PANC-1
Description: (§1) FIGS. 1A-1B show the IC50 curves of the twelve investigational β-lactams in pancreatic cancer cells PANC-1 (ATCC CRL-1469) and normal pancreatic ductal epithelial cells (ATCC CRL-4038). The GraphPad Prism software was used to process the results. The IC50 values were determined by SRB (Sulforhodamine B) assay following standard procedure. PANC-1 cells were plated in 96 well plates and treated with 1, 10, 100, 1000 and 10,000 nM of each of the drugs in triplicate for 72 hrs. Cells were fixed, washed and stained with SRB dye, the stained cells were washed, and the dye solubilized. It was read using a plate reader at 565 nm. The IC50 values were calculated assuming that the 10 μM sample has reached saturation. Following similar way, IC50 values were determined for normal pancreatic ductal epithelial cells.
(§2) As mentioned earlier, PANC-1 is referred to generically as the “gold standard of pancreatic cancers” representing as it does almost total resistance to GEM, the first line treatment currently used in clinical situations. Pancreatic cancer cells PANC-1 (ATCC CRL-1469) and normal pancreatic ductal epithelial cells (ATCC CRL-4038) were used in this study. The GraphPad Prism software was used to process the results. […] Cells were fixed, washed and stained with SRB dye, the stained cells were washed, and the dye solubilized. It was read using a plate reader at 565 nm. The IC50 values were calculated assuming that the 10 μM sample has reached saturation. Following similar way, IC50 values were determined for normal pancreatic ductal epithelial cells.

[2] = test system: PANC-1 tumorspheres; test: 3D-tumorsphere formation assay; type: cell-based, human
Description: Number of tumorspheres formed can be used to distinguish the efficacy of different anticancer drugs in a more physically acceptable method than 2D culture. Based on selectivity and toxicity towards PANC-1 cells in comparison to normal pancreatic ductal epithelial cells (Table D), six compounds (A, B, C, E, F, and G) were chosen for the 3D-tumorsphere formation assay. The assay was carried out by following the protocol developed by Johnson et al., (2013). PANC-1 cells (5000) were plated as single cells in Corning ultra-low attachment 24 well plates in 0.5 ml DMEM+10% FBS. The cells were grown in a humidified atmosphere of 5% CO2 for 168 hrs. 0.1 ml Media was added on 72nd and 144 hrs. The β-lactams were dissolved in DMSO and maintained at −20° C. On the day of assay, on the addition of media, the drugs were freshly diluted in media. The final concentrations of drugs were 0, 1 nM, 10 nM, 100 nM, 1 uM, 10 μM. After 144 hours the total number tumorspheres that were larger than 100 micrometers were counted in a field of 1 mm×1 mm at 10× magnification in a bright field microscope. The data was plotted and the IC50 value was calculated.
3D-tumorsphere formation assay is considered to be a fast and economical intermediary step between in vitro and in vivo biological evaluations. A tumorsphere is a solid, spherical formation developed from the proliferation of a single cancer stem/progenitor cell in 3D culture. These cells are easily distinguishable from single or aggregated as they appear to become fused together and individual cells cannot be appearing to become fused together and individual cells cannot be identified. The size can vary from less than 50 micrometers to 250 micrometers. The number of tumorspheres formed can be used to characterize the cancer stem cell population within different in vitro cultured cancer cell lines. The number of tumorspheres formed can also be used to distinguish the efficacy of different anticancer drugs in a more physically acceptable method than 2D culture. Based on selectivity and toxicity towards PANC-1 cells in comparison to normal pancreatic ductal epithelial cells (Table D), six compounds (A, B, C, E, F, and G) were chosen for the 3D-tumorsphere formation assay. The assay was carried out by following the protocol developed by Johnson et al., (2013). […] The below steps were followed to accomplish the assay. • 5000 PANC-1 cells were plated as single cells in Corning ultra-low attachment 24 well plates in 0.5 ml DMEM+10% FBS. • Cells were grown in a humidified atmosphere of 5% CO2 for 168 hrs. 0.1 ml Media was added on 72nd and 144 hrs. • Drugs were dissolved in DMSO and maintained at −20° C. On the day of assay, on the addition of media, the drugs were freshly diluted in media. • The final concentrations of drugs were 0, 1 nM, 10 nM, 100 nM, 1 μM, 10 μM. • After 144 hrs the total number tunorspheres that were larger than 100 micrometers were counted in a field of 1 mm×1 mm at 10× magnification in a bright field microscope. The data was plotted and the IC50 value was calculated.

[3] = test system: HPAF-II; test: Cytotoxicity IC50 in HPAF-II cells; type: cell-based; conditions: Homo sapiens; HPAF-II cell line; read-out: IC50 (mean ± standard error)
Source text: (§3) B. Cytotoxicity Studies: Determination of IC50 Values (Single Run) in Capan-2, HPAC. HPAF-II, and HS766T Cell Lines
(§4) Capan-2, HPAC. HPAF-H, and HS766T. The compounds A, D, E, G, and H were chosen randomly, out of twelve β-laclam molecules, to carry out this evaluation.

[4] = test system: HS 766T; test: Cytotoxicity IC50 in HS 766T cells; type: cell-based; conditions: Homo sapiens, Hs766T; HS 766T cell line; read-out: IC50 (mean ± standard error)
Source text: as §3, §4

[5] = test system: CaPan-2; test: Cytotoxicity IC50 in CaPan-2 cells; type: cell-based; conditions: Homo sapiens; CaPan-2 cell line; read-out: IC50 (mean ± standard error)
Source text: as §3, §4

[6] = test system: normal pancreatic ductal epithelial cells (ATCC CRL-4038); test: SRB (Sulforhodamine B) assay in normal pancreatic ductal epithelial cells; type: cell-based; conditions: Epithelial cell; 2D-culture, SRB, average of 3 runs; read-out: IC50 (NPC)
Description: as §1, §2

[7] = test system: PANC-1 cells; test: Flow cytometric cell cycle analysis; type: cell-based, human; conditions: tested for 24, 48 and 72 hrs
Description: The noise was cleared. […] After 72 hrs all the cells (including floaters) were collected, the adhered cells were trypsinized and collected as well. The cells were then centrifuged in a 50 mL centrifuge tube. The pellet was washed with PBS and reconstituted in 500 μL PBS. The cells were then fixed in ice cold ethanol by adding the ethanol dropwise while gently vortexing the cells. Stored at 4° C. for overnight. The cells were then centrifuged, and the pellet reconstituted in Guava cell cycle reagent and analyzed in a Guava flow cytometer. A similar experiment was conducted with normal pancreatic ductal epithelial cells (NPC) and the drug treatment was done according to the IC50 values observed in the 2D assay conducted on them (Table E). Please note that 2N represents G0/G1 and 4N for G2 phases.
After 72 hrs all the cells (including floaters) were collected, the adhered cells were trypsinized and collected as well. The cells were then centrifuged in a 50 mL centrifuge tube. The pellet was washed with PBS and reconstituted in 500 μL PBS. The cells were then fixed in ice cold ethanol by adding the ethanol dropwise while gently vortexing the cells. […] The cells were then centrifuged, and the pellet reconstituted in Guava cell cycle reagent and analyzed in a Guava flowcytometer. […] First set of data with PANC-1 cells were analyzed by using FlowJo software, the noise was cleared (FIG. 3). […]

[8] = test system: HPAC; test: Cytotoxicity IC50 in HPAC cells; type: cell-based; conditions: Homo sapiens; HPAC cell line; read-out: IC50 (mean ± standard error)
Source text: as §3, §4

[9] = test system: PANC-1 cells; test: BrdU incorporation immunostaining; type: cell-based, human; conditions: compared to control
Description: BrdU (5-bromo-2′-deoxyuridine) incorporation to proceed with immunostaining coverslip slides with Prolong® Gold Antifade reagent were visualized under microscope. Alexa Fluor® 488 (green) was used for BrdU staining along with nuclear marker DAPI (blue). BrdU images were co-localized with nuclear marker DAPI blue.
Diluted BrdU in fresh, pre-warmed growth medium to a final concentration of 0.03 mg/mL. This mixture was added to cells and incubated at 37° C. for 30 min. The medium was aspirated; cells were completely covered with 70% ethanol for 5 min. The fixative was aspirated and the cells were rinsed three times in 1×PBS for 5 min each. Therefore, 1.5 mL HCl and incubated for 30 min at room temperature. Then the HCl was aspirated and rinsed to times in 1×PBS for 5 min each. Subsequent proceeding for immunostaining followed the below steps: The cells were submerged with blocking buffer for 60 min and subsequently incubated with primary antibody (BrdU Mouse mAb) for overnight at 4° C. Therefore, the cells were rinsed three times in 1×PBS for 5 min each and incubated in fluorochrome-conjugated secondary antibody diluted in antibody dilution buffer for 1-2 h at room temperature in the dark and then rinsed for three times in 1×PBS for 5 min each. Coverslip slides with Prolong® Gold Antifade reagem were visualized under microscope. […]

[10] = test system: PANC-1 cells; test: Annexin V assay to determine apoptosis; type: cell-based, human; conditions: 0.5, 1, and 2 μM, 16 hrs
Description: Cell death was identified as apoptosis through Annexin V assay. For this study, PANC-1, the most commonly known drug-resistance pancreatic cancer cell line was used. […] Error bars show standard deviation (n=3). For optimal throughput, final cell concentrations were maintained between 2×10^4 and 1×10^5 cells/well (or 1×10^5 to 5×10^5 cells/mL). Doxorubicin was used as control at a concentration of 5 μM for 16 hrs. For this study, PANC-1, the most commonly known drug-resistance pancreatic cancer cell lines were used. […] Error bars show standard deviation (n=3). For optimal throughput, final cell concentrations were maintained between 2×10^4 and 1×10^5 cells/well (or 1×10^5 to 5×10^5 cells/mL). Doxorubicin was used as a control at a concentration of 5 uM for 16 hrs (FIG. 5). Apoptosis was identified as the mechanism of cell death.

[11] = test system: Phospho-Histone H2A.X (Ser139) in PANC-1 cells; test: ICC-IF with Phospho-Histone H2A.X (Ser139) (γ-H2AX staining); type: cell-based, human; conditions: 1 μM, compared to control
Source text: This immunocytochemistry-immunofluorescence (ICC-IF) with Phospho-Histone H2A.X (Ser139) assay enables the quantitative detection of the histone variant H2AX, phosphorylated on serine 139. This modification serves as a sensitive biomarker for the detection of such breaks, localizing the site of DNA repair. Gamma-H2AX triggers cell cycle arrest and DNA damage response repair, and this assay is used to study genome stability, the cell cycle, DNA repair, and it serves as a biomarker for cancer and offers enhanced convenience over other immunoassay technologies. The PANC-1 cells were grown, treated with 1 μM concentration of the compound “D”, fixed and strained directly in chamber slides. Cells were submerged with blocking buffer for 60 min and then incubated with primary antibody Phospho-Histone H2A.X (Ser139) for overnight at 4° C. Then the cells were rinsed for three times in 1×PBS for 5 min each. The specimen was incubated in fluorochrome-conjugated secondary antibody diluted in antibody dilution buffer for 1-2 h at room temperature in the dark and then rinsed for three times in 1×PBS for 5 min each. […]
This assay was also performed with the compound D, prior to the determination of IC50 values in normal pancreatic ductal epithelial cell lines. This assay enables the quantitative detection of the histone variant H2AX, phosphorylated on serine 139. […]

[12] = test system: drug-resistant pancreatic cancer cell lines; test: IC50 against drug-resistant pancreatic cancer cell lines; type: cell-based; conditions: Homo sapiens, range over cell lines
[13] = 2D-culture, SRB, 72 hrs, average of 3 runs, read-out: IC50 (PANC-1)

Compound | IC50 [1, 13] [nM] | activity in 3D-tumorsphere formation assay compared with 2D-culture [2] | IC50 ([2]; Homo sapiens, tumorspheres larger than 100 micrometers counted after 144 hrs) [nM] | IC50 [3] [nM] | IC50 [4] [nM] | IC50 [5] [nM] | IC50 [6] [nM] | time of maximum cell cycle blockage [7] [h] | IC50 [8] [nM] | rate of DNA replication and subsequent cell proliferation (BrdU incorporation) [9] | mechanism of cell death [10] | γ-H2AX (phospho-H2AX) staining [11] | IC50 ([1]; in vitro, triplicate, read-out: PANC-1 cell lines IC50) [nM] | IC50 [12] [nM]
CS(=O)(=O)O[C@@H]1C(=O)N(c2cc3c4ccccc4ccc3c3ccccc23)[C@H]1c1ccc(F)cn1 (racemic) [A, (±)-Trans-N-(chrysen-6-yl)-2-(5-fluoropyridin-2-yl)-4-oxoazetidin-3-yl methanesulfonate] | 21.2 | higher activity in 3D-tumorphere formation assay than 2D-culture | 18.1 | 980 ± 380 | 240 ± 380 | > 10000 | 449 | 72 | > 10000 |  |  |  |  | 
O=C1[C@@H](OS(=O)(=O)C2CCC2)[C@H](c2ccc(F)cn2)N1c1cc2c3ccccc3ccc2c2ccccc12 (racemic) [D, (±)-Trans-N-(chrysen-6-yl)-2-(5-fluoropyridin-2-yl)-4-oxoazetidin-3-yl cyclobutanesulfonate] | 118 |  |  | 1390 ± 400 | 730 ± 400 |  | 60.8 |  |  | significantly low | Apoptosis | positive staining |  | 
Nc1ccn([C@@H]2O[C@H](CO)[C@@H](O)C2(F)F)c(=O)n1 [Gemcitabine, reference compound] | 37900 |  |  | > 50000 | 16300 ± 600 | > 50000 |  |  | > 50000 |  |  |  | 37900 | ≥ 16000
